Results: PubChem BioAssay AID1963841 (Molecular Pharmacology Branch, DTP, NCI, 2024)

Tested on: 439559-082-T-J2-PDC spheroid viability
Assay: Anticancer human tumor 439559-082-T-J2-PDC patient-derived colon adenocarcinoma cell line growth inhibition [POLQ]
Conditions: spheroids with HUVEC and MSC; for IC50: curve of first compound; for viability, T/C: stronger effect = lower value
Procedure, shortened: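 PDC + HUVEC + MSC complex spheroids; POLQ inhibitors ± partner drugs; top conc. at/near clinical Cmax, else 10 microM (SN-38 1 microM), half-log dilutions; 37 degrees C, 5% CO2.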

[1] = second compound 0.0316 µM, first compound 0.0316 µM
[2] = second compound 0.0316 µM, first compound 0.1 µM
[3] = second compound 0.0316 µM, first compound 0.316 µM
[4] = second compound 0.0316 µM, first compound 1 µM
[5] = second compound 0.0316 µM, first compound 3.16 µM
[6] = second compound 0.0316 µM, first compound 10 µM
[7] = second compound 0.1 µM, first compound 0.0316 µM
[8] = second compound 0.1 µM, first compound 0.1 µM
[9] = second compound 0.1 µM, first compound 0.316 µM
[10] = second compound 0.1 µM, first compound 1 µM
[11] = second compound 0.1 µM, first compound 3.16 µM
[12] = second compound 0.1 µM, first compound 10 µM
[13] = second compound 0.316 µM, first compound 0.0316 µM
[14] = second compound 0.316 µM, first compound 0.1 µM
[15] = second compound 0.316 µM, first compound 0.316 µM
[16] = second compound 0.316 µM, first compound 1 µM
[17] = second compound 0.316 µM, first compound 3.16 µM
[18] = second compound 0.316 µM, first compound 10 µM
[19] = second compound 1 µM, first compound 0.0316 µM
[20] = second compound 1 µM, first compound 0.1 µM
[21] = second compound 1 µM, first compound 0.316 µM
[22] = second compound 1 µM, first compound 1 µM
[23] = second compound 1 µM, first compound 3.16 µM
[24] = second compound 1 µM, first compound 10 µM
[25] = second compound 3.16 µM, first compound 0.0316 µM
[26] = second compound 3.16 µM, first compound 0.1 µM
[27] = second compound 3.16 µM, first compound 0.316 µM
[28] = second compound 3.16 µM, first compound 1 µM
[29] = second compound 3.16 µM, first compound 3.16 µM
[30] = second compound 3.16 µM, first compound 10 µM
[31] = second compound 10 µM, first compound 0.0316 µM
[32] = second compound 10 µM, first compound 0.1 µM
[33] = second compound 10 µM, first compound 0.316 µM
[34] = second compound 10 µM, first compound 1 µM
[35] = second compound 10 µM, first compound 3.16 µM
[36] = second compound 10 µM, first compound 10 µM
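Further: spheroids exposed to compounds for seven days before readout.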
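Wherever viability, T/C is given: 100% = DMSO vehicle control viability.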

CCc1cc2c(N3CCc4c(cc(Cn5ccnc5)cc4-c4cn(C)nc4C(F)(F)F)C3=O)ccnc2c(OC)n1 + Nc1ccc(C#CCN(C(=O)Cc2ncc(C(F)(F)F)cc2C(F)(F)F)c2ccc(F)cc2)nn1
IC50 (second compound 0.0316 µM): > 10 µM | IC50 (second compound 0.1 µM): > 10 µM | IC50 (second compound 0.316 µM): > 10 µM | IC50 (second compound 1 µM): > 10 µM | IC50 (second compound 3.16 µM): > 10 µM | IC50 (second compound 10 µM): > 10 µM | viability, T/C [1]: 98% | viability, T/C [2]: 94.8% | viability, T/C [3]: 93.3% | viability, T/C [4]: 89.9% | viability, T/C [5]: 83% | viability, T/C [6]: 84% | viability, T/C [7]: 90.6% | viability, T/C [8]: 101% | viability, T/C [9]: 86% | viability, T/C [10]: 86.2% | viability, T/C [11]: 96.5% | viability, T/C [12]: 95.6% | viability, T/C [13]: 102% | viability, T/C [14]: 105% | viability, T/C [15]: 86.5% | viability, T/C [16]: 97.2% | viability, T/C [17]: 93.7% | viability, T/C [18]: 86.9% | viability, T/C [19]: 88.7% | viability, T/C [20]: 95.8% | viability, T/C [21]: 86.5% | viability, T/C [22]: 88.5% | viability, T/C [23]: 95.1% | viability, T/C [24]: 80.5% | viability, T/C [25]: 104% | viability, T/C [26]: 102% | viability, T/C [27]: 95% | viability, T/C [28]: 82.7% | viability, T/C [29]: 88.8% | viability, T/C [30]: 78.7% | viability, T/C [31]: 98.9% | viability, T/C [32]: 91.8% | viability, T/C [33]: 92.2% | viability, T/C [34]: 93.9% | viability, T/C [35]: 91.7% | viability, T/C [36]: 84.7%

CC1COCCN1c1cc(C2(S(C)(=N)=O)CC2)nc(-c2ccnc3[nH]ccc23)n1 (stereo not given) + Cc1cccc(N(C)C(=O)C2C(O)CCN2c2nc(C)cc(C(F)(F)F)c2C#N)c1
IC50 (second compound 0.0316 µM): > 10 µM | IC50 (second compound 0.1 µM): > 10 µM | IC50 (second compound 0.316 µM): > 10 µM | IC50 (second compound 1 µM): > 10 µM | IC50 (second compound 3.16 µM): > 10 µM | IC50 (second compound 10 µM): > 10 µM | viability, T/C [1]: 105% | viability, T/C [2]: 102% | viability, T/C [3]: 104% | viability, T/C [4]: 92.4% | viability, T/C [5]: 83.4% | viability, T/C [6]: 70.5% | viability, T/C [7]: 98.6% | viability, T/C [8]: 101% | viability, T/C [9]: 97.9% | viability, T/C [10]: 101% | viability, T/C [11]: 84.7% | viability, T/C [12]: 70.4% | viability, T/C [13]: 97.3% | viability, T/C [14]: 97.8% | viability, T/C [15]: 103% | viability, T/C [16]: 94.5% | viability, T/C [17]: 94.2% | viability, T/C [18]: 75% | viability, T/C [19]: 102% | viability, T/C [20]: 98.2% | viability, T/C [21]: 101% | viability, T/C [22]: 92.1% | viability, T/C [23]: 89.1% | viability, T/C [24]: 69.2% | viability, T/C [25]: 101% | viability, T/C [26]: 103% | viability, T/C [27]: 99.9% | viability, T/C [28]: 96.6% | viability, T/C [29]: 92.2% | viability, T/C [30]: 68.3% | viability, T/C [31]: 95% | viability, T/C [32]: 89.6% | viability, T/C [33]: 96% | viability, T/C [34]: 96.6% | viability, T/C [35]: 80.5% | viability, T/C [36]: 59.1%

COc1cc(C2c3cc4c(cc3C(OC3OC5COC(C)OC5C(O)C3O)C3COC(=O)C23)OCO4)cc(OC)c1O (stereo not given) + Cc1cccc(N(C)C(=O)C2C(O)CCN2c2nc(C)cc(C(F)(F)F)c2C#N)c1
IC50 (second compound 0.0316 µM): > 10 µM | IC50 (second compound 0.1 µM): > 10 µM | IC50 (second compound 0.316 µM): > 10 µM | IC50 (second compound 1 µM): > 10 µM | IC50 (second compound 3.16 µM): > 10 µM | IC50 (second compound 10 µM): > 10 µM | viability, T/C [1]: 90.7% | viability, T/C [2]: 99.6% | viability, T/C [3]: 95.6% | viability, T/C [4]: 95.3% | viability, T/C [5]: 76.8% | viability, T/C [6]: 68.8% | viability, T/C [7]: 103% | viability, T/C [8]: 101% | viability, T/C [9]: 98.1% | viability, T/C [10]: 89.8% | viability, T/C [11]: 83.4% | viability, T/C [12]: 79.1% | viability, T/C [13]: 96.9% | viability, T/C [14]: 92.4% | viability, T/C [15]: 95.2% | viability, T/C [16]: 88.2% | viability, T/C [17]: 82.1% | viability, T/C [18]: 69.1% | viability, T/C [19]: 108% | viability, T/C [20]: 90.8% | viability, T/C [21]: 93.5% | viability, T/C [22]: 90.4% | viability, T/C [23]: 84.2% | viability, T/C [24]: 73.4% | viability, T/C [25]: 90.9% | viability, T/C [26]: 102% | viability, T/C [27]: 90.8% | viability, T/C [28]: 83.3% | viability, T/C [29]: 82.1% | viability, T/C [30]: 70.6% | viability, T/C [31]: 92.4% | viability, T/C [32]: 82.5% | viability, T/C [33]: 95.4% | viability, T/C [34]: 86.8% | viability, T/C [35]: 71% | viability, T/C [36]: 59.9%

C=CCn1c(=O)c2cnc(Nc3ccc(N4CCN(C)CC4)cc3)nc2n1-c1cccc(C(C)(C)O)n1 + COC1C(OC(N)=O)C(O)C(Oc2ccc3c(O)c(NC(=O)c4ccc(O)c(CC=C(C)C)c4)c(=O)oc3c2C)OC1(C)C
IC50 (second compound 0.0316 µM): > 1 µM | IC50 (second compound 0.1 µM): > 1 µM | IC50 (second compound 0.316 µM): > 1 µM | IC50 (second compound 1 µM): > 1 µM | IC50 (second compound 3.16 µM): > 1 µM | IC50 (second compound 10 µM): > 1 µM | viability, T/C (second compound 0.0316 µM, first compound 0.00316 µM): 98.7% | viability, T/C (second compound 0.0316 µM, first compound 0.01 µM): 104% | viability, T/C [1]: 102% | viability, T/C [2]: 101% | viability, T/C [3]: 96.1% | viability, T/C [4]: 80.7% | viability, T/C (second compound 0.1 µM, first compound 0.00316 µM): 112% | viability, T/C (second compound 0.1 µM, first compound 0.01 µM): 106% | viability, T/C [7]: 102% | viability, T/C [8]: 102% | viability, T/C [9]: 91% | viability, T/C [10]: 79.1% | viability, T/C (second compound 0.316 µM, first compound 0.00316 µM): 102% | viability, T/C (second compound 0.316 µM, first compound 0.01 µM): 102% | viability, T/C [13]: 105% | viability, T/C [14]: 101% | viability, T/C [15]: 94.5% | viability, T/C [16]: 86.3% | viability, T/C (second compound 1 µM, first compound 0.00316 µM): 106% | viability, T/C (second compound 1 µM, first compound 0.01 µM): 104% | viability, T/C [19]: 100% | viability, T/C [20]: 97.3% | viability, T/C [21]: 94.8% | viability, T/C [22]: 76.3% | viability, T/C (second compound 3.16 µM, first compound 0.00316 µM): 101% | viability, T/C (second compound 3.16 µM, first compound 0.01 µM): 101% | viability, T/C [25]: 97.2% | viability, T/C [26]: 94.6% | viability, T/C [27]: 102% | viability, T/C [28]: 85.6% | viability, T/C (second compound 10 µM, first compound 0.00316 µM): 100% | viability, T/C (second compound 10 µM, first compound 0.01 µM): 93.8% | viability, T/C [31]: 97.9% | viability, T/C [32]: 109% | viability, T/C [33]: 94.8% | viability, T/C [34]: 72.2%

CCCS(=O)(=O)Nc1ccc(F)c(C(=O)c2c[nH]c3ncc(-c4ccc(Cl)cc4)cc23)c1F + Nc1ccc(C#CCN(C(=O)Cc2ncc(C(F)(F)F)cc2C(F)(F)F)c2ccc(F)cc2)nn1
IC50 (second compound 0.0316 µM): 7.87 µM | IC50 (second compound 0.1 µM): 7.94 µM | IC50 (second compound 0.316 µM): 8.88 µM | IC50 (second compound 1 µM): 8.43 µM | IC50 (second compound 3.16 µM): 8.5 µM | IC50 (second compound 10 µM): 8.29 µM | viability, T/C [1]: 66% | viability, T/C [2]: 72.5% | viability, T/C [3]: 94.9% | viability, T/C [4]: 90.5% | viability, T/C [5]: 78.2% | viability, T/C [6]: 42.5% | viability, T/C [7]: 79.8% | viability, T/C [8]: 64.4% | viability, T/C [9]: 92.4% | viability, T/C [10]: 98.2% | viability, T/C [11]: 82% | viability, T/C [12]: 41.9% | viability, T/C [13]: 65.4% | viability, T/C [14]: 77% | viability, T/C [15]: 93.4% | viability, T/C [16]: 103% | viability, T/C [17]: 88.7% | viability, T/C [18]: 45.9% | viability, T/C [19]: 52.6% | viability, T/C [20]: 68.7% | viability, T/C [21]: 95.9% | viability, T/C [22]: 107% | viability, T/C [23]: 81% | viability, T/C [24]: 44.6% | viability, T/C [25]: 61.6% | viability, T/C [26]: 66.6% | viability, T/C [27]: 103% | viability, T/C [28]: 99.6% | viability, T/C [29]: 91.5% | viability, T/C [30]: 44.3% | viability, T/C [31]: 60.9% | viability, T/C [32]: 69.3% | viability, T/C [33]: 89.4% | viability, T/C [34]: 104% | viability, T/C [35]: 85.6% | viability, T/C [36]: 43.8%
